From patent US20210392890A1, “COMPOSITIONS COMPRISING PYRIDINE CARBOXYLATE HERBICIDES AND PLANT GROWTH REGULATORS” (Corteva Agriscience LLC, priority 2018, published 2021)
“And” between values parts separate entries of the source, which are not always exact repeats. Equal entries are not always repeated.

What was measured:
Assay type in all cases: in vivo
[1] = system: Viola tricolor (wild pansy); experiment: Greenhouse postemergence herbicidal effect on VIOTR; conditions: for Herbicidal Effects (% visual injury) VIOTR Obs: Ethephon 0 g/ha
Description: (§1) Seeds of the desired test plant species were planted in a 90:10% v/v (volume/volume) mixture of PRO-MIX® BX (Premier Tech Horticulture, Quakertown, Pa., USA) and PROFILE® GREENS GRADE™ (Profile Products LLC, Buffalo Grove, Ill., USA) planting mixture, which typically has a pH of 5.2 to 6.2 and an organic matter content of at least 50 percent, in plastic pots with a surface area of 103.2 square centimeters (cm^2). In some aspects, to help ensure good germination and healthy plants, a fungicide treatment and/or other chemical or physical treatment was applied. The plants were grown for 7-36 days (d) in a greenhouse with an approximate 14-hour (h) photoperiod which was maintained at about 23° C. during the day and 22° C. during the night. Nutrients and water were added on a regular basis and supplemental lighting was provided with overhead metal halide 1000-Watt lamps as necessary. The plants were employed for testing when they reached the second or third true leaf stage.
(§2) Emulsifiable concentrates of each of each pyridine carboxylate herbicide (Compound A or Compound B) were prepared at 100 grams acid equivalent per liter (g ae/L). The emulsifiable concentrates also included a safener, cloquintocet-mexyl, at 120 grams active ingredient per liter (g ai/L). An aliquot of each emulsifiable concentrate was placed in a 25 mL glass vial and diluted with an aqueous mixture of 1.25% (v/v) ACTIROB® B esterified rapeseed oil (Bayer Crop Science, Research Triangle Park, N.C., USA) or MSO® Concentrate with LECI-TECH® methylated soybean oil (Loveland Products, Loveland, Colo., USA) to obtain concentrated stock solutions at the highest application rate for each herbicide, based upon a 12 milliliter (mL) application volume at a rate of 187 liters per hectare (L/ha). The concentrated stock solutions were further diluted with an aqueous mixture of 1.25% v/v ACTIROB® B or MSO® Concentrate with LECI-TECH® to obtain stock solutions at reduced application rates for each herbicide. Spray solutions of the herbicide combinations (Compound A or Compound B plus the PGR) were prepared by adding weighed amounts or aliquots of the PGR to the stock solutions of Compound A or Compound B to form 12-mL spray solutions in two-way combinations.
(§3) The spray solutions were applied to the plant material with an overhead Mandel track sprayer equipped with 8002E nozzles calibrated to deliver 187 L/ha over an application area of 0.503 square meters (m^2) at a spray height of 18 inches (43 centimeters (cm)) above the average plant canopy. Control plants were sprayed in the same manner with the solvent blank. All pyridine carboxylate herbicide (component a) application rates are given as “g ae/ha” and all PGR (component b) application rates are given as “g ai/ha.”
(§4) The treated plants and control plants were placed in a greenhouse as described above and watered by sub-irrigation to prevent wash-off of the test compounds. After 20-22 d, the condition of the test plants as compared with that of the control plants was determined visually and scored on a scale of 0 to 100 percent where 0 corresponds to no injury and 100 corresponds to complete kill.

[2] = system: Papaver rhoeas (common poppy); experiment: Greenhouse postemergence herbicidal effect on PAPRH
Description: as §1
(§5) Emulsifiable concentrates of each of each pyridine carboxylate herbicide (Compound A or Compound B) were prepared at 100 grams acid equivalent per liter (g ae/L). The emulsifiable concentrates also included a safener, cloquintocet-mexyl, at 120 grams active ingredient per liter (g ai/L). […]
as §4

[3] = system: Cirsium arvense (Canada thistle); experiment: Greenhouse postemergence herbicidal effect on CIRAR; conditions: for Herbicidal Effects (% visual injury) CIRAR Obs: Ethephon 0 g/ha
Description: as §1, §2, §3, §4

[4] = system: Cyanus segetum (cornflower); experiment: Greenhouse postemergence herbicidal effect on CENCY
Description: as §1, §5, §4

[5] = system: Salsola kali (Russian thistle); experiment: Greenhouse postemergence herbicidal effect on SASKR
Description: as §1, §5, §4

[6] = system: Abutilon theophrasti (velvetleaf); experiment: Greenhouse postemergence herbicidal effect on ABUTH; conditions: for Herbicidal Effects (% visual injury) ABUTH Obs: Ethephon 0 g/ha
Description: as §1, §2, §3, §4

[7] = system: Matricaria inodora (scentless chamomile); experiment: Greenhouse postemergence herbicidal effect on MATIN
Description: as §1, §5, §4

[8] = system: Chenopodium album L. (common lambsquarters); experiment: Greenhouse postemergence herbicidal effect on CHEAL; conditions: Ethephon 0 g/ha
Description: as §1, §2, §3, §4

[9] = system: Veronica hederifolia (ivy-leaved speedwell); experiment: Greenhouse postemergence herbicidal effect on VERHE
Description: as §1, §5, §4

Kochia scoparia (kochia) = experiment: Greenhouse postemergence herbicidal effect on KCHSC; conditions: for Herbicidal Effects (% visual injury) KCHSC Obs: Ethephon 0 g/ha
Description: as §1, §2, §3, §4

[10] = system: Cyperus esculentus (yellow nutsedge); experiment: Greenhouse postemergence herbicidal effect on CYPES; conditions: Ethephon 0 g/ha
Description: as §1, §5
The treated plants and control plants were placed in a greenhouse as described above and watered by sub-irrigation to prevent wash-off of the test compounds. After 20-22 d, the condition of the test plants as compared with that of the control plants was determined visually and scored on a scale of 0 to 100 percent where 0 corresponds to no injury and 100 corresponds to complete kill. […]

[11] = system: Brassica napus (spring rape); experiment: Greenhouse postemergence herbicidal effect on BRSNN; conditions: for Herbicidal Effects (% visual injury) BRSNN Obs: Ethephon 0 g/ha
Description: as §1, §2, §3, §4

[12] = system: Veronica persica (Persian speedwell); experiment: Greenhouse postemergence herbicidal effect on VERPE
Description: as §1, §5, §4

[13] = system: Amaranthus retroflexus (pigweed); experiment: Greenhouse postemergence herbicidal effect on AMARE; conditions: for Herbicidal Effects (% visual injury) AMARE Obs: Ethephon 0 g/ha
Description: as §1, §2, §3, §4

[14] = system: Matricaria discoidea (pineapple weed); experiment: Greenhouse postemergence herbicidal effect on MATMT
Description: as §1, §5, §4

[15] = system: Helianthus annuus (common sunflower); experiment: Greenhouse postemergence herbicidal effect on HELAN; conditions: for Herbicidal Effects (% visual injury) HELAN Obs: Ethephon 0 g/ha
Description: as §1, §2, §3, §4

Compound: N#CCOC(=O)c1nc(-c2ccc3cc[nH]c3c2F)c(F)c(N)c1Cl [Compound A, cyanomethyl 4-amino-3-chloro-5-fluoro-6-(7-fluoro-1H-indol-6-yl)pyridine-2-carboxylate]
- Herbicidal Effects (% visual injury) VIOTR Obs ([1]; Compound A 7.5 g/ha): 13%
- Herbicidal Effects (% visual injury) VIOTR Obs ([1]; Compound A 10 g/ha): 20%
- % visual injury Obs ([1]; herbicide 15 g ae/ha alone): 15%
- % visual injury Obs ([2]; herbicide 7.5 g ae/ha alone): 100%
- % visual injury Obs ([2]; herbicide 10 g ae/ha alone): 99%
- % visual injury Obs ([2]; herbicide 15 g ae/ha alone): 100%
- Herbicidal Effects (% visual injury) CIRAR Obs ([3]; Compound A 7.5 g/ha): 50%
- Herbicidal Effects (% visual injury) CIRAR Obs ([3]; Compound A 10 g/ha): 60%
- % visual injury Obs ([3]; herbicide 7.5 g ae/ha alone): 25% and 40% and 50%
- % visual injury Obs ([3]; herbicide 15 g ae/ha alone): 63%
- % visual injury Obs ([4]; herbicide 7.5 g ae/ha alone): 75%
- % visual injury Obs ([4]; herbicide 10 g ae/ha alone): 78%
- % visual injury Obs ([4]; herbicide 15 g ae/ha alone): 80%
- % visual injury Obs ([5]; herbicide 7.5 g ae/ha alone): 50%
- % visual injury Obs ([5]; herbicide 10 g ae/ha alone): 60%
- % visual injury Obs ([5]; herbicide 15 g ae/ha alone): 63%
- Herbicidal Effects (% visual injury) ABUTH Obs ([6]; Compound A 7.5 g/ha): 73%
- Herbicidal Effects (% visual injury) ABUTH Obs ([6]; Compound A 10 g/ha): 85%
- % visual injury Obs ([6]; herbicide 7.5 g ae/ha alone): 40% and 68%
- % visual injury Obs ([6]; herbicide 10 g ae/ha alone): 48% and 80%
- % visual injury Obs ([7]; herbicide 7.5 g ae/ha alone): 55%
- % visual injury Obs ([7]; herbicide 10 g ae/ha alone): 60%
- % visual injury Obs ([7]; herbicide 15 g ae/ha alone): 83%
- Herbicidal Effects (% visual injury) CHEAL Obs ([8]; Compound A 7.5 g/ha): 100%
- Herbicidal Effects (% visual injury) CHEAL Obs ([8]; Compound A 10 g/ha): 100%
- % visual injury Obs ([9]; herbicide 7.5 g ae/ha alone): 68%
- % visual injury Obs ([9]; herbicide 10 g ae/ha alone): 73%
- % visual injury Obs ([9]; herbicide 15 g ae/ha alone): 75%
- Herbicidal Effects (% visual injury) KCHSC Obs (Kochia scoparia (kochia); Compound A 7.5 g/ha): 70%
- Herbicidal Effects (% visual injury) KCHSC Obs (Kochia scoparia (kochia); Compound A 10 g/ha): 65%
- % visual injury Obs (Kochia scoparia (kochia); herbicide 7.5 g ae/ha alone): 63% and 75%
- % visual injury Obs (Kochia scoparia (kochia); herbicide 10 g ae/ha alone): 65% and 73%
- % visual injury Obs (Kochia scoparia (kochia); herbicide 15 g ae/ha alone): 63%
- Herbicidal Effects (% visual injury) CYPES Obs ([10]; Compound A 7.5 g/ha): 58%
- Herbicidal Effects (% visual injury) CYPES Obs ([10]; Compound A 10 g/ha): 38%
- Herbicidal Effects (% visual injury) BRSNN Obs ([11]; Compound A 7.5 g/ha): 45%
- Herbicidal Effects (% visual injury) BRSNN Obs ([11]; Compound A 10 g/ha): 55%
- % visual injury Obs ([11]; herbicide 7.5 g ae/ha alone): 65%
- % visual injury Obs ([11]; herbicide 10 g ae/ha alone): 65%
- % visual injury Obs ([12]; herbicide 7.5 g ae/ha alone): 78%
- % visual injury Obs ([12]; herbicide 10 g ae/ha alone): 90%
- % visual injury Obs ([12]; herbicide 15 g ae/ha alone): 93%
- Herbicidal Effects (% visual injury) AMARE Obs ([13]; Compound A 7.5 g/ha): 99%
- Herbicidal Effects (% visual injury) AMARE Obs ([13]; Compound A 10 g/ha): 100%
- % visual injury Obs ([13]; herbicide 7.5 g ae/ha alone): 80% and 88%
- % visual injury Obs ([13]; herbicide 10 g ae/ha alone): 85% and 88%
- % visual injury Obs ([14]; herbicide 7.5 g ae/ha alone): 20%
- % visual injury Obs ([14]; herbicide 10 g ae/ha alone): 20%
- % visual injury Obs ([14]; herbicide 15 g ae/ha alone): 63%
- Herbicidal Effects (% visual injury) HELAN Obs ([15]; Compound A 7.5 g/ha): 100%
- Herbicidal Effects (% visual injury) HELAN Obs ([15]; Compound A 10 g/ha): 93%
- % visual injury Obs ([15]; herbicide 7.5 g ae/ha alone): 83% and 90%
- % visual injury Obs ([15]; herbicide 10 g ae/ha alone): 88% and 89%
